The results in this text go back to patent US7094911B2, “Biphenyl and biphenyl-analogous compounds as integrin antagonists” (Bayer Aktiengesellschaft, priority 1998, dated 2006).

Take `Cc1cc(C)c(S(=O)(=O)N[C@@H](Cc2ccc(-c3cccc(NC(=O)Nc4nc5ccccc5s4)c3)cc2)C(=O)O)c(C)c1` [Example 1.197]: the melting point was found to be 198 °C.
As to `COc1ccc(-c2ccc(NC(=O)NCc3cccnc3)cc2)cc1S(=O)(=O)NC(CC(=O)O)c1ccccc1` (centres unmarked) [Example 4.67], the melting point was found to be 161 °C.
Compound `CCNC(=O)Nc1cccc(-c2ccc(OC)c(S(=O)(=O)NC(CC(=O)O)c3ccccc3)c2)c1` (centres unmarked) [Example 4.73] showed a melting point of over 250 °C.
The same measure for `C=CCN/C(=C\[N+](=O)[O-])Nc1cccc(-c2ccc(C[C@H](NS(=O)(=O)CC34CC[C@@H](CC3=O)C4(C)C)C(=O)O)cc2)c1` [Example 12.5]: 150 °C (dec.).
`Cc1cc(C)c(S(=O)(=O)N[C@@H](Cc2ccc(-c3cccc(NC(=O)Nc4nc5cc(Cl)ccc5o4)c3)cc2)C(=O)O)c(C)c1` [Example 1.195] came in with a melting point of 220 °C.
In the case of `COc1ccc(-c2cccc(NC(=O)N=c3[nH]c4ccccc4[nH]3)c2)cc1S(=O)(=O)N[C@H](CC(=O)O)c1ccccc1` [Example 4.88], the melting point is 151 °C (dec.).
The figure for `COc1ccc(-c2cccc(NC(=O)NC3CC3)c2)cc1S(=O)(=O)NCC(=O)O` [Example 4.77] is 128 °C.
Consider `Cc1cc(C)c(S(=O)(=O)N[C@@H](Cc2ccc(-c3cccc(Nc4nc5ccccc5[nH]4)c3)cc2)C(=O)O)c(C)c1` [Example 16.1.3, (2S)-3-[3′-(1H-benzimidazol-2-ylamino)[1,1′-biphenyl]-4-yl]-2-[(mesitylsulfonyl)amino]propanoic acid], for which the melting point was 190 °C (dec.).
`Cc1cc(C)c(S(=O)(=O)N[C@@H](Cc2ccc(-c3cccc(Nc4c(NC5CC5)c(=O)c4=O)c3)cc2)C(=O)O)c(C)c1` [Example 13.1.3, (2S)-3-(3′-{[2-(cyclopropylamino)-3,4-dioxo-1-cyclobuten-1-yl]-amino}[1,1′-biphenyl]-4-yl)-2-[(mesitylsulfonyl)amino]-propanoic acid] had a melting point of 164 °C.
In turn, `CCCCNC(=O)Nc1cccc(-c2cccc(S(=O)(=O)N[C@H](CC(=O)O)c3ccccc3)c2)c1` [Example 4.94] showed a melting point of 152 °C.
The same measure for `O=C(O)[C@H](Cc1ccc(-c2cccc(CNc3ccccn3)c2)cc1)NS(=O)(=O)c1ccc(Cl)s1` [Example 18.14]: over 240 °C; for `Cc1cc(C)c(S(=O)(=O)N[C@@H](Cc2ccc(-c3cccc(NC(=O)Nc4cc(C(C)(C)C)on4)c3)cc2)C(=O)O)c(C)c1` [Example 1.209]: 180 °C.
In turn, `O=C(Nc1cccc(-c2ccc(C[C@H](NS(=O)(=O)CCCC(F)(F)F)C(=O)O)cc2)c1)NC1CC1` [Example 1.162] gave a melting point of 202 °C.
On to `COc1ccc(-c2cccc(NC(=O)c3ncc[nH]3)c2)cc1S(=O)(=O)NC(CC(=O)O)c1ccccc1` (centres unmarked) [Example 19.5], for which the melting point is over 200 °C.
Take `Cc1cc(C)c(S(=O)(=O)N[C@@H](Cc2ccc(-c3cccc(NC(=O)/N=c4\[nH]c5ccc(C(=O)O)cc5[nH]4)c3)cc2)C(=O)O)c(C)c1` [Example 1.189]: the melting point is 256 °C (dec.).
As to `Cc1cc(C)c(S(=O)(=O)NC(Cc2cccc(-c3cccc(NC(=O)NC4CC4)c3)c2)C(=O)O)c(C)c1` (centres unmarked) [Example 1.191], the melting point was 214 °C.
With `O=C(O)[C@H](Cc1ccc(-c2cccc(CNc3ccccn3)c2)cc1)NS(=O)(=O)c1c(Cl)cccc1Cl` [Example 18.13], the melting point was over 240 °C.
The same measure for `CCCCNC(=O)Nc1ccc(-c2ccc(OC)c(S(=O)(=O)NC(CC(=O)O)c3ccccc3)c2)cc1` (centres unmarked) [Example 4.65]: 125 °C; for `Cc1cc(C)c(S(=O)(=O)N[C@@H](Cc2ccc(-c3cccc(NC(=O)NCc4ccc(C(F)(F)F)cc4)c3)cc2)C(=O)O)c(C)c1` [Example 1.212]: 154 °C.
In the case of `N#C/N=C(\NCc1ccccc1)Nc1cccc(-c2cccc(S(=O)(=O)NC(CC(=O)O)c3ccccc3)c2)c1` (centres unmarked) [Example 10.1.5, 3-[(3′-{[(benzylamino)(cyanoimino)methyl]amino}[1,1′-biphenyl]-3-yl)sulfonylamino]-3-phenyl-propanoic acid], the melting point was found to be 90 °C.
The figure for `COc1ccc(-c2cccc(NC(=O)N=c3[nH]c4cc(C)c(C)cc4[nH]3)c2)cc1S(=O)(=O)NC(CC(=O)O)c1ccccc1` (centres unmarked) [Example 4.104] is over 240 °C.
The same measure for `CCCCNC(=O)Nc1cccc(-c2ccc(OC)c(S(=O)(=O)N[C@H](CC(=O)O)c3ccccc3)c2)c1` [Example 4.87]: 122 °C (dec.).
The same measure for `COc1ccc(-c2ccc(NC(=O)NC3CC3)cc2)cc1S(=O)(=O)NC(CC(=O)O)c1ccccc1` (centres unmarked) [Example 4.76]: 234 °C; for `O=C(O)CC(NS(=O)(=O)c1cccc(-c2cccc(NC(=O)NCc3ccccn3)c2)c1)c1cccnc1` (centres unmarked) [Example 4.40]: 176 °C.
Turning to `COc1ccc2nc(NC(=O)Nc3cccc(-c4ccc(C[C@H](NS(=O)(=O)c5c(C)cc(C)cc5C)C(=O)O)cc4)c3)sc2c1` [Example 1.200], the melting point worked out at 225 °C.
On to `O=C(O)CC(NS(=O)(=O)c1cccc(-c2cccc(Nc3c(NC4CC4)c(=O)c3=O)c2)c1)c1ccccc1` (centres unmarked) [Example 13.7], for which the melting point was 214 °C (dec.).
The same measure for `CCCNC(=O)Nc1cccc(-c2cccc(CC(NS(=O)(=O)c3c(C)cc(C)cc3C)C(=O)O)c2)c1` (centres unmarked) [Example 1.192]: 136 °C; for `Cc1cc(C)c(S(=O)(=O)NC(Cc2cccc(-c3ccc(NC(=O)Nc4ccncc4)cc3)c2)C(=O)O)c(C)c1` (centres unmarked) [Example 1.201]: 188 °C.
The compound `Cc1cc(C)c(S(=O)(=O)N[C@@H](Cc2ccc(-c3cccc(NC(=O)c4cccnc4)c3)cc2)C(=O)O)c(C)c1` [Example 19.4] gave a melting point of over 240 °C.
`O=C(O)[C@H](Cc1ccc(-c2cccc(CNc3ccccn3)c2)cc1)NS(=O)(=O)c1ccc(F)cc1` [Example 18.8] came in with a melting point of over 240 °C.
Regarding `COc1ccc(-c2cccc(NC(=O)NCC(F)(F)F)c2)cc1S(=O)(=O)NC(CC(=O)O)c1ccccc1` (centres unmarked) [Example 4.100], the melting point was over 240 °C.
The compound `O=C(O)[C@H](Cc1ccc(-c2cccc(CNc3ccccn3)c2)cc1)NS(=O)(=O)c1cccs1` [Example 18.9] showed a melting point of over 240 °C.
The figure for `Cc1cc(C)c(S(=O)(=O)NC(Cc2cccc(-c3cccc(NC(=O)Nc4ccncc4)c3)c2)C(=O)O)c(C)c1` (centres unmarked) [Example 1.194] is 207 °C; for `O=C(O)CC(NS(=O)(=O)c1cccc(-c2cccc(Nc3c(Nc4nc5ccccc5[nH]4)c(=O)c3=O)c2)c1)c1ccccc1` (centres unmarked) [Example 13.6] it is 191 °C (dec.).
`C[C@@H](NS(=O)(=O)c1cccc(-c2cccc(NC(=O)Nc3ccncc3)c2)c1)C(=O)O` [Example 4.84] registered a melting point of 169 °C.
Compound `Cc1cc(C)c(S(=O)(=O)N[C@@H](Cc2ccc(-c3cccc(NC(=O)Nc4cc(C)on4)c3)cc2)C(=O)O)c(C)c1` [Example 1.208] registered a melting point of 189 °C.
The figure for `COc1ccc(-c2cccc(CNc3nc4ccccc4[nH]3)c2)cc1S(=O)(=O)NC(CC(=O)O)c1ccccc1` (centres unmarked) [Example 18.5] is over 240 °C.
The compound `CCNC(=O)Nc1ccc(-c2ccc(OC)c(S(=O)(=O)NC(CC(=O)O)c3ccccc3)c2)cc1` (centres unmarked) [Example 4.71] showed a melting point of 134 °C.
In turn, `COc1ccc(-c2cccc(Nc3ccccn3)c2)cc1S(=O)(=O)NC(CC(=O)O)c1ccccc1` (centres unmarked) [Example 20.5] yielded a melting point of over 240 °C.
As to `COc1ccc(-c2cccc(NC(=O)NCc3ccc(C(F)(F)F)cc3)c2)cc1S(=O)(=O)N[C@H](CC(=O)O)c1ccccc1` [Example 4.90], the melting point was 111 °C (dec.).
On to `Cc1cc(C)c(S(=O)(=O)N[C@@H](Cc2ccc(-c3cccc(Nc4c(NCc5ccccc5)c(=O)c4=O)c3)cc2)C(=O)O)c(C)c1` [Example 13.4], for which the melting point is 226 °C (dec.).
The same measure for `CC1(C)[C@H]2CCC1(CS(=O)(=O)N[C@@H](Cc1ccc(-c3cccc(N/C(=N/C#N)NC4CC4)c3)cc1)C(=O)O)C(=O)C2` [Example 10.5]: 178 °C; for `N#C/N=C(/Nc1cccc(-c2cccc(S(=O)(=O)NC(CC(=O)O)c3ccccc3)c2)c1)NC1CC1` (centres unmarked) [Example 10.3.5, 3-[(3′-{[(cyclopropylamino)(cyanoimino)methyl]amino}[1,1′-biphenyl]-3-yl)sulfonylamino]-3-phenyl-propanoic acid]: 120 °C.
Turning to `CCCN/C(=N\C#N)Nc1cccc(-c2ccc(C[C@H](NS(=O)(=O)c3c(C)cc(C)cc3C)C(=O)O)cc2)c1` [Example 10.6], the melting point is 184 °C.
For `COc1ccc(-c2cccc(NC(=O)NCC(F)(F)C(F)(F)F)c2)cc1S(=O)(=O)NC(CC(=O)O)c1ccccc1` (centres unmarked) [Example 4.85], the melting point came to 147 °C.
The compound `O=C(O)[C@H](Cc1ccc(-c2cccc(CNc3ccccn3)c2)cc1)NS(=O)(=O)Cc1ccc(F)cc1` [Example 18.10] returned a melting point of over 240 °C.
Compound `COc1ccc(-c2ccc(NC(=O)NCC(C)C)cc2)cc1S(=O)(=O)NC(CC(=O)O)c1ccccc1` (centres unmarked) [Example 4.72] yielded a melting point of 126 °C.
In the case of `CN(CC(=O)O)S(=O)(=O)c1cccc(-c2cccc(NC(=O)NC3CC3)c2)c1` [Example 6.11], the melting point was found to be 117 °C.
The same measure for `Cc1cc(C)c(S(=O)(=O)N[C@@H](Cc2ccc(-c3cccc(NC(=O)NCC(F)(F)C(F)(F)F)c3)cc2)C(=O)O)c(C)c1` [Example 1.211]: 126 °C.
In turn, `Cc1cc(C)c(S(=O)(=O)N[C@@H](Cc2ccc(-c3cccc(NC(=O)NCCSC(F)(F)F)c3)cc2)C(=O)O)c(C)c1` [Example 1.207] registered a melting point of 138 °C.
Consider `CN(CC(=O)O)S(=O)(=O)c1cccc(-c2cccc(NC(=O)Nc3ccncc3)c2)c1` [Example 6.14], for which the melting point turned out to be 142 °C.
With `C#CCN/C(=C\[N+](=O)[O-])Nc1cccc(-c2ccc(C[C@H](NS(=O)(=O)CC34CC[C@@H](CC3=O)C4(C)C)C(=O)O)cc2)c1` [Example 12.6], the melting point was 185 °C (dec.).
As to `COc1ccc2[nH]/c(=N\C(=O)Nc3cccc(-c4ccc(OC)c(S(=O)(=O)NC(CC(=O)O)c5ccccc5)c4)c3)[nH]c2c1` (centres unmarked) [Example 4.105], the melting point is over 240 °C.
